Source: PubChem BioAssay (NCI)
Where “and” joins values, the source holds several entries; their conditions need not be identical. Identical values can stand only once.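 Cultured in 96-well plates, cells were exposed to test compound for 48 hours across five concentrations. GI50 marks 50% less growth. TGI: concentration producing complete growth inhibition.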 Where a SMILES comes first, the peptide text is derived from it. The star is where a group is joined. Boc = CC(C)(C)OC(=O)*; Bn = c1ccc(C*)cc1

Legend:
Experiment in all cases: NCI-60 cell line screen, 48 h
A549 NSCLC = test system: A549 NSCLC
HOP-62 NSCLC = test system: HOP-62 NSCLC
LOX IMVI melanoma = test system: LOX IMVI melanoma
NCI-H226 lung = test system: NCI-H226 lung
NCI-H460 lung = test system: NCI-H460 lung
NCI-H522 lung = test system: NCI-H522 lung
NCI/ADR-RES ovarian = test system: NCI/ADR-RES ovarian
PC-3 prostate = test system: PC-3 prostate
SR leukemia = test system: SR leukemia
U251 CNS = test system: U251 CNS
UACC-257 melanoma = test system: UACC-257 melanoma

Row | Structure (SMILES) | TGI (A549 NSCLC) | TGI (HOP-62 NSCLC) | TGI (LOX IMVI melanoma) | TGI (NCI-H226 lung) | TGI (NCI-H460 lung) | TGI (NCI-H522 lung) [µM] | TGI (NCI/ADR-RES ovarian) [µM] | TGI (PC-3 prostate) | TGI (SR leukemia) | TGI (U251 CNS) | TGI (UACC-257 melanoma) | GI50 (A549 NSCLC) | GI50 (NCI-H226 lung) | GI50 (NCI-H460 lung) | GI50 (PC-3 prostate) | GI50 (HOP-62 NSCLC) [µM] | GI50 (NCI/ADR-RES ovarian) [µM] | GI50 (SR leukemia) [µM] | GI50 (U251 CNS) [µM] | GI50 (UACC-257 melanoma) [µM]
1 | CN(C)CC1CCC/C(=C\c2ccccc2)C1=O (centres undefined) | 38.2 µM | 34.2 µM | 3.2 µM | 8.26 µM | 16.9 µM | 2.95 | 41.6 | 21 µM | > 100 µM | 28.7 µM | 7.45 µM | – | – | – | – | – | – | – | – | –
2 | CCOC(=O)C1(N)CC1 | > 100 µM | > 100 µM | > 100 µM | > 100 µM | > 100 µM | > 100 | > 100 | > 100 µM | > 100 µM | > 100 µM | > 100 µM | – | – | – | – | – | – | – | – | –
3 | CCNc1nnc(-c2ccccc2Nc2ccccc2-c2nnc(NCC)s2)s1 | > 62 µM | > 100 µM | 38.5 µM | 77.2 µM | 31.3 µM | 26.9 | > 100 | > 69.4 µM | > 100 µM | > 55.4 µM | 90.3 µM | – | – | – | – | – | – | – | – | –
4 | COc1ccc(-c2nc3c(C(=O)NCCN(C)C)cccc3c3ccccc23)cc1 | 12.6 µM | 13.3 µM | 2.94 µM | 17.1 µM | 10.9 µM | 8.82 | 45.4 | 13.7 µM | 6.96 µM | 10.1 µM | 3.56 µM | – | – | – | – | – | – | – | – | –
5 | CN1CC2=C(NC(=S)NC2c2ccccc2Cl)/C(=C/c2ccccc2Cl)C1 (centres undefined) | > 100 µM | > 100 µM | > 100 µM | > 100 µM | > 100 µM | > 100 | > 100 | > 100 µM | 70.5 µM | > 100 µM | > 100 µM | – | – | – | – | – | – | – | – | –
6 | O=[N+]([O-])C(/C=C(\Cl)[N+](=O)[O-])=C(N1CCCCC1)N1CCCCC1 | 54 µM | > 100 µM | > 100 µM | > 100 µM | > 100 µM | > 100 | > 100 | > 100 µM | 51.1 µM | > 100 µM | 69.2 µM | – | – | – | – | – | – | – | – | –
7 | Cc1ccsc1C(=S)Nc1ccc(Cl)c(/C=N/OC(C)C)c1 | > 100 µM | > 100 µM | > 100 µM | > 100 µM | > 100 µM | > 100 | > 100 | > 100 µM | 48.7 µM | > 100 µM | > 100 µM | – | – | – | – | – | – | – | – | –
8 | S=C1CC(c2ccccc2)Sc2cc(Cl)ccc2N1 (centres undefined) | 38.4 µM | 18.4 µM | > 100 µM | 32.7 µM | 22.8 µM | 16.9 | 30.5 | > 100 µM | 83.7 µM | 17.7 µM | > 100 µM | – | – | – | – | – | – | – | – | –
9 | O=C1[C@@H](O)[C@@H]2CCCC[C@@]23CCCN13 | > 100 µM | > 100 µM | > 100 µM | > 100 µM | > 100 µM | > 100 | > 100 | > 100 µM | > 100 µM | > 100 µM | > 100 µM | – | – | – | – | – | – | – | – | –
10 | CCCC(=O)OC[n+]1ccc(-c2c(COC(=O)NC(C)C)c(COC(=O)NC(C)C)c3n2CCC3)cc1 | > 100 µM | > 100 µM | > 100 µM | > 100 µM | > 100 µM | > 100 | > 100 | > 100 µM | > 100 µM | > 100 µM | > 100 µM | – | – | – | – | – | – | – | – | –
11 | CCC12C=CCN3CCC4(c5cc(C(c6ccc(OC)cc6)C6Cc7ccccc7N6)c(OC)cc5N(C)C4C(O)(C(=O)OC)C1O)C32 (centres undefined) | > 100 µM | 90.1 µM | 36 µM | > 100 µM | 54.5 µM | 98 | > 100 | > 100 µM | 27 µM | 35.4 µM | > 100 µM | – | – | – | – | – | – | – | – | –
12 | CC1(C)CCCCCCCCCC2CC2CCC(C)(C)C1=O (centres undefined) | 57.5 µM | 46 µM | 34.9 µM | 31.2 µM | 46 µM | 30 | 44.3 | 70.9 µM | 53.5 µM | 33 µM | 46.2 µM | – | – | – | – | – | – | – | – | –
13 | Nc1cc(Cl)ccc1SSc1ccc(Cl)cc1N | > 100 µM | 29.4 µM | 14.2 µM | 15.4 µM | 31.6 µM | 23.8 | 30.4 | 48.4 µM | > 100 µM | 15.4 µM | 41.5 µM | – | – | – | – | – | – | – | – | –
14 | CC(=O)NC1COC(COC(=O)CCCCCCCCCCNC(=O)c2ccc([N+](=O)[O-])c3c(=O)c4ccccc4[nH]c23)C(O)C1OC(C)C(=O)NC(C(=O)NC(CCC(N)=O)C(=O)OCc1ccccc1)C(C)C (centres undefined) | 71.9 µM | 24.4 µM | 30.1 µM | 85.5 µM | 39.7 µM | 35.4 | > 94.5 | 26.4 µM | 46.5 µM | 27.9 µM | 38.6 µM | – | – | – | – | – | – | – | – | –
15 | CS(=O)(=O)O[C@H]1[C@H](O)c2ccccc2[C@@H]1N=[N+]=[N-] | > 100 µM | > 100 µM | > 100 µM | > 100 µM | > 100 µM | > 100 | > 100 | > 100 µM | > 100 µM | > 100 µM | > 100 µM | – | – | – | – | – | – | – | – | –
16 | O=CN1CCC23CC(O)CCC2C1Cc1cc(Oc2nnnn2-c2ccccc2)cc(O)c13 (centres undefined) | > 100 µM | > 100 µM | > 100 µM | > 100 µM | > 100 µM | > 100 | > 100 | > 100 µM | > 100 µM | > 100 µM | > 100 µM | – | – | – | – | – | – | – | – | –
17 | C=CC1(c2ccc3ccccc3c2)OCC(CC)O1 (centres undefined) | > 100 µM | 2.48 µM | 44.3 µM | 81.4 µM | > 100 µM | > 100 | > 100 | > 100 µM | 61.4 µM | > 100 µM | > 100 µM | – | – | – | – | – | – | – | – | –
18 | O=[N+]([O-])/C(Cl)=C/C(=C1/Nc2ccccc2O1)[N+](=O)[O-] | > 100 µM | 76.6 µM | 23.1 µM | 79.3 µM | 81 µM | 27 | 73.2 | 32.3 µM | 47.1 µM | 28.7 µM | 25.1 µM | – | – | – | – | – | – | – | – | –
19 | CC(C)Cn1cnc2c(Cl)nc3ccccc3c21 | > 100 µM | > 100 µM | > 100 µM | > 100 µM | > 100 µM | > 100 | > 100 | > 100 µM | 66.6 µM | > 100 µM | > 100 µM | – | – | – | – | – | – | – | – | –
20 | Cc1cn(C2CCN(CC3COC(C)(C)O3)O2)c(=O)[nH]c1=O (centres undefined) | > 100 µM | > 100 µM | > 100 µM | > 100 µM | > 100 µM | > 100 | > 100 | > 100 µM | > 100 µM | > 100 µM | > 100 µM | – | – | – | – | – | – | – | – | –
21 | O=C1/C(=C/c2ccc(O)c(O)c2)CC/C1=C\c1ccc(O)c(O)c1 | > 79.9 µM | 39 µM | > 56.1 µM | 25.8 µM | > 100 µM | 5.42 | > 100 | > 100 µM | > 29.5 µM | 27.4 µM | > 100 µM | – | – | – | – | – | – | – | – | –
22 | CC(=O)n1[nH]c(=O)n(-c2ccccc2)c1=O | > 100 µM | > 100 µM | > 100 µM | > 100 µM | > 100 µM | > 100 | > 100 | > 100 µM | > 100 µM | > 100 µM | > 100 µM | – | – | – | – | – | – | – | – | –
23 | CCC1CCC2c3c([nH]c4ccc(C)cc34)C3C(=O)N(N(C)C)C(=O)C3C2C1 (centres undefined) | > 100 µM | > 100 µM | > 100 µM | > 100 µM | > 68 µM | 2.68 | > 53.5 | > 100 µM | 48.6 µM | > 100 µM | > 100 µM | – | – | – | – | – | – | – | – | –
24 | CNC(=O)C(CC(C)C)NC(=O)C(C)NC(=O)C(Cc1ccc(OCc2ccccc2)cc1)NC(=O)C(COCc1ccccc1)NC(=O)OC(C)(C)C (centres undefined) (Boc-S(Bn)Y(Bn)AL-NHMe; configuration not given here) | > 100 µM and 51.4 µM | > 53.2 µM and 38.1 µM | 27.5 µM and 48.8 µM | > 68.5 µM and 39 µM | > 61.4 µM and 42.6 µM | 37.4 | > 100 | 58.4 µM and 18.6 µM | > 46.1 µM and 86.9 µM | > 41.3 µM and 31.7 µM | > 100 µM | > 70.9 µM and 16.9 µM | 44.3 µM and 15.2 µM | > 41 µM and 18.3 µM | 19.2 µM and 2.53 µM | – | – | – | – | –
25 | Cc1cccc(C)c1N=Nc1ccc(O)c(CN(C)C)c1 | > 100 µM | > 100 µM | > 100 µM | > 100 µM | > 100 µM | > 100 | > 100 | > 100 µM | > 100 µM | > 100 µM | > 100 µM | – | – | – | – | – | – | – | – | –
26 | Cn1cc(-c2nnc(-c3ccc(Cl)cc3)[nH]c2=O)c2ccccc21 | > 100 µM | > 75.8 µM | > 100 µM | 35.4 µM | > 44.1 µM | 6.16 | 8.03 | > 78.7 µM | > 100 µM | > 37.5 µM | > 24.3 µM | – | – | – | – | – | – | – | – | –
27 | C=C(Cl)C(C)(Cl)CCC(Cl)C(C)C (centres undefined) | > 100 µM | > 100 µM | 47.6 µM | > 100 µM | > 100 µM | > 100 | > 100 | > 100 µM | 64.2 µM | > 100 µM | > 100 µM | – | – | – | – | – | – | – | – | –
28 | C=C1c2nc3ccccc3n2C=C(c2ccc(Cl)cc2)N1c1ccc(OCCN2CCCCC2)cc1 | > 100 µM | > 100 µM | > 45 µM | > 100 µM | 45 µM and > 100 µM | 45 | > 100 | > 100 µM | – | > 100 µM | 37.4 µM and > 100 µM | > 100 µM | – | 1.2 µM | > 100 µM | > 100 | 2.14 | 0.0439 | 3.75 | > 100
